# Experimental data taken from PubChem BioAssay (NCI).
#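 Dose response: 5 concentrations. Exposure: 48 h. Format: 96-well plates. Endpoint: linear interpolation; highest concentration if not reached. GI50 is the concentration that inhibits growth by half. The concentration for full growth arrest is given as TGI.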
# Assays:
# Test in all cases: inhibition of tumour cell growth, NCI panel, 48 h
# [1] = tested on: CAKI-1 renal
# [2] = tested on: HCT-116 colon
# [3] = tested on: HOP-62 NSCLC
# [4] = tested on: UACC-257 melanoma
# [5] = tested on: SK-OV-3 ovarian
# [6] = tested on: SNB-19 CNS
# [7] = tested on: U251 CNS
# [8] = tested on: SR leukemia
# [9] = tested on: IGROV1 ovarian
# [10] = tested on: SW-620 colon
# [11] = tested on: SK-MEL-5 melanoma
# [12] = tested on: MDA-MB-468 breast
# [13] = tested on: OVCAR-5 ovarian
# [14] = tested on: ACHN renal
# [15] = tested on: OVCAR-8 ovarian
# [16] = tested on: A549 NSCLC
# [17] = tested on: BT-549 breast
# [18] = tested on: MALME-3M melanoma
# [19] = tested on: NCI-H460 lung
# [20] = tested on: M14 melanoma
# [21] = tested on: 786-0 renal
# [22] = tested on: SK-MEL-2 melanoma
# [23] = tested on: UO-31 renal
# [24] = tested on: LOX IMVI melanoma
# [25] = tested on: MDA-MB-435
# [26] = tested on: CCRF-CEM leukemia
# [27] = tested on: HOP-92 NSCLC
# [28] = tested on: KM12 colon
# [29] = tested on: K-562 leukemia
# [30] = tested on: COLO 205 colon
# [31] = tested on: HS 578T breast
# [32] = tested on: TK-10 renal
# [33] = tested on: NCI-H522 lung
# [34] = tested on: NCI/ADR-RES ovarian
# [35] = tested on: HCT-15 colon
# [36] = tested on: SK-MEL-28 melanoma
# [37] = tested on: NCI-H226 lung
# [38] = tested on: HCC-2998 colon
# [39] = tested on: PC-3 prostate
# [40] = tested on: NCI-H23 lung
# [41] = tested on: T-47D breast
# [42] = tested on: RXF 393 renal
# [43] = tested on: SN12C renal
# [44] = tested on: UACC-62 melanoma
# [45] = tested on: OVCAR-3 ovarian
# [46] = tested on: EKVX NSCLC
# [47] = tested on: A498 renal
# [48] = tested on: MDA-MB-231 breast
# [49] = tested on: SF-539 CNS
# [50] = tested on: SF-295 CNS
# [51] = tested on: HT29 colon
# [52] = tested on: MOLT-4 leukemia
# [53] = tested on: MCF7 breast
# [54] = tested on: SNB-75 CNS
# [55] = tested on: DU-145 prostate
# [56] = tested on: HL-60(TB) leukemia
# [57] = tested on: OVCAR-4 ovarian
# [58] = tested on: SF-268 CNS
# [59] = tested on: RPMI-8226 leukemia
structure (smiles),measurement,setting,value
Cc1ccc2c(c1)/C(=C/C(=O)c1cc3ccccc3oc1=O)C(=O)N2,GI50,[1],12.2 µM
same,TGI,[1],25.3 µM
same,GI50,[2],4.45 µM
same,TGI,[2],16.8 µM
same,GI50,[3],> 100 µM
same,TGI,[3],> 100 µM
same,GI50,[4],15.7 µM
same,TGI,[4],29.6 µM
same,GI50,[5],> 100 µM
same,TGI,[5],> 100 µM
same,GI50,[6],> 100 µM
same,TGI,[6],> 100 µM
same,GI50,[7],29.2 µM
same,TGI,[7],> 100 µM
same,GI50,[8],7.24 µM
same,TGI,[8],74.7 µM
same,GI50,[9],16.2 µM
same,TGI,[9],29.9 µM
same,GI50,[10],14.7 µM
same,TGI,[10],30.4 µM
same,GI50,[11],24.9 µM
same,TGI,[11],80.2 µM
same,GI50,[12],10.5 µM
same,TGI,[12],23.9 µM
same,GI50,[13],16.7 µM
same,TGI,[13],30.3 µM
same,GI50,[14],9.6 µM
same,TGI,[14],21.3 µM
same,GI50,[15],17.9 µM
same,TGI,[15],34 µM
same,GI50,[16],34.5 µM
same,TGI,[16],> 100 µM
same,GI50,[17],17.6 µM
same,TGI,[17],33.7 µM
same,GI50,[18],10.6 µM
same,TGI,[18],22.5 µM
same,GI50,[19],> 100 µM
same,TGI,[19],> 100 µM
same,GI50,[20],15.9 µM
same,TGI,[20],29.8 µM
same,GI50,[21],18.5 µM
same,TGI,[21],32.4 µM
same,GI50,[22],21.1 µM
same,TGI,[22],54.7 µM
same,GI50,[23],11.3 µM
same,TGI,[23],23.4 µM
same,GI50,[24],14.7 µM
same,TGI,[24],27.9 µM
same,GI50,[25],17.6 µM
same,TGI,[25],33 µM
same,GI50,[26],6.91 µM
same,TGI,[26],56.5 µM
same,GI50,[27],14.5 µM
same,TGI,[27],28.4 µM
same,GI50,[28],> 100 µM
same,TGI,[28],> 100 µM
same,GI50,[29],3.91 µM
same,TGI,[29],48.7 µM
same,GI50,[30],17.2 µM
same,TGI,[30],32.4 µM
same,GI50,[31],19.4 µM
same,TGI,[31],84.6 µM
same,GI50,[32],20 µM
same,TGI,[32],34.7 µM
same,GI50,[33],3.26 µM
same,TGI,[33],11.5 µM
same,GI50,[34],17.3 µM
same,TGI,[34],34.4 µM
same,GI50,[35],16.7 µM
same,TGI,[35],32.8 µM
same,GI50,[36],17 µM
same,TGI,[36],30.6 µM
same,GI50,[37],18.6 µM
same,TGI,[37],46.8 µM
same,GI50,[38],17.7 µM
same,TGI,[38],32.8 µM
same,GI50,[39],16.1 µM
same,TGI,[39],36 µM
same,GI50,[40],16.4 µM
same,TGI,[40],32.8 µM
same,GI50,[41],13 µM
same,TGI,[41],34.5 µM
same,GI50,[42],15.8 µM
same,TGI,[42],29.3 µM
same,GI50,[43],16.9 µM
same,TGI,[43],31.9 µM
same,GI50,[44],15.5 µM
same,TGI,[44],33 µM
same,GI50,[45],14.1 µM
same,TGI,[45],27.3 µM
same,GI50,[46],16.2 µM
same,TGI,[46],29.9 µM
same,GI50,[47],> 100 µM
same,TGI,[47],> 100 µM
same,GI50,[48],15 µM
same,TGI,[48],28.2 µM
same,GI50,[49],16.2 µM
same,TGI,[49],29.7 µM
same,GI50,[50],> 100 µM
same,TGI,[50],> 100 µM
same,GI50,[51],20.6 µM
same,TGI,[51],40.5 µM
same,GI50,[52],8.56 µM
same,TGI,[52],43.2 µM
same,GI50,[53],16.4 µM
same,TGI,[53],34 µM
same,GI50,[54],82.1 µM
same,TGI,[54],> 100 µM
same,GI50,[55],17.9 µM
same,TGI,[55],32.4 µM
same,GI50,[56],4.32 µM
same,TGI,[56],23.1 µM
same,GI50,[57],17.4 µM
same,TGI,[57],33.3 µM
same,GI50,[58],68.3 µM
same,TGI,[58],> 100 µM
same,GI50,[59],22.1 µM
same,TGI,[59],63.9 µM
